The values that follow are results of earlier work, collected in US11938224B1, “Benzonatate modified release solid tablets and capsules” (Tris Pharma, Inc., priority 2016, dated 2024).

The conditions of this data set: room temperature, oily liquid.

Take `CCCCNc1ccc(C(=O)OCCOCCOCCOCCOCCOCCOCCOCCOCCOC)cc1` [Benzonatate, 2-[2-[2-[2-[2-[2-[2-[2-(2-methoxyethoxy)ethoxy]ethoxy]ethoxy]ethoxy]ethoxy]ethoxy]ethoxy] ethyl-4-butylaminobenzoate]: the solubility in water result was “water soluble”.
